Like-named read-outs stand apart in the source and are kept apart here.
Target: T1, PDE2 (Bos taurus, UniProt P14099)
T1 sequence (P14099 1-921): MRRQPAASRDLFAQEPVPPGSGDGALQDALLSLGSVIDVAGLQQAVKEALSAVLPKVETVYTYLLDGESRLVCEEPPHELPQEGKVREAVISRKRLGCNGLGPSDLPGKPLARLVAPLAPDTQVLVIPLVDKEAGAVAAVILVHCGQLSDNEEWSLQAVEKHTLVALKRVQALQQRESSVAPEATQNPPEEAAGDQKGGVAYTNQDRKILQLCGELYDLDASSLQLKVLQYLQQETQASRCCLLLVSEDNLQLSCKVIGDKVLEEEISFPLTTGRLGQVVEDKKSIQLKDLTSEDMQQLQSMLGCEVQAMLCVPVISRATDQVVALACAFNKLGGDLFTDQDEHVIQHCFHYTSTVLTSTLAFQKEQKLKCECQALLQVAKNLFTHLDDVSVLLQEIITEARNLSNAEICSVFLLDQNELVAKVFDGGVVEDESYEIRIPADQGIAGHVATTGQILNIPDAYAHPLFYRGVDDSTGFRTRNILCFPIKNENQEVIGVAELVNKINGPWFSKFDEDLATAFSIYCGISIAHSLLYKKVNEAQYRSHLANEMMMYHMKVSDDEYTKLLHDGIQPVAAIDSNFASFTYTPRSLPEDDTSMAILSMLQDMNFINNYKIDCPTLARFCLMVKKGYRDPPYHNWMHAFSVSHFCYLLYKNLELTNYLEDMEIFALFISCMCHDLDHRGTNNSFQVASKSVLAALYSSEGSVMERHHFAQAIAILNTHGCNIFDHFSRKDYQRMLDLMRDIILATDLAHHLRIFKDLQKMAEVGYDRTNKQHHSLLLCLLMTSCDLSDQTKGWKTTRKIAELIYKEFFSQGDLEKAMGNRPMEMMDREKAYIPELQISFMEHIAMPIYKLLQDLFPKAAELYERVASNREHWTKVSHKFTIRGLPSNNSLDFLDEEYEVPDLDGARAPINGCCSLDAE
Assay: Radioenzymatic phosphodiesterase assay: PDE2 inhibition
Assay type: biochemical, bovine
Details: for inhibition at 10 µM: read-out: PDE2 percentage of inhibition at 10 μM
Procedure: Nucleoside radioactivity was determined by liquid scintillation.

COc1cc2c(cc1-c1ccccc1)C(c1cccc(C#N)c1)=NCC(=O)N2C [Example 1, 3-(8-Methoxy-1-methyl-2-oxo-7-phenyl-2,3-dihydro-1H-benzo[e][1,4]diazepin-5-yl)-benzonitrile]
inhibition at 10 µM: 83%

COc1cc2c(cc1-c1ccc(F)cc1)C(c1cccc(C#N)c1)=NCC(=O)N2C [Example 2, 3-[7-(4-Fluoro-phenyl)-8-methoxy-1-methyl-2-oxo-2,3-dihydro-1H-benzo[e][1,4]diazepin-5-yl]-benzonitrile]
inhibition at 10 µM: 97%

COc1ccccc1-c1cc2c(cc1OC)N(C)C(=O)CN=C2c1cccc(C#N)c1 [Example 3, 3-[8-Methoxy-7-(2-methoxy-phenyl)-1-methyl-2-oxo-2,3-dihydro-1H-benzo[e][1,4]diazepin-5-yl]-benzonitrile]
inhibition at 10 µM: 100%

COc1ccc(-c2cc3c(cc2OC)N(C)C(=O)CN=C3c2cccc(C#N)c2)cc1 [Example 4, 3-[8-Methoxy-7-(4-methoxy-phenyl)-1-methyl-2-oxo-2,3-dihydro-1H-benzo[e][1,4]diazepin-5-yl]-benzonitrile]
inhibition at 10 µM (Table 1, 10 μM test compound): 97%

COc1cc2c(cc1-c1ccccc1Cl)C(c1cccc(C#N)c1)=NCC(=O)N2C [Example 5, 3-[7-(2-Chloro-phenyl)-8-methoxy-1-methyl-2-oxo-2,3-dihydro-1H-benzo[e][1,4]diazepin-5-yl]-benzonitrile]
inhibition at 10 µM (Table 1, 10 μM test compound): 98%

COc1cc2c(cc1-c1cccc(Cl)c1)C(c1cccc(C#N)c1)=NCC(=O)N2C [Example 6, 3-[7-(3-Chloro-phenyl)-8-methoxy-1-methyl-2-oxo-2,3-dihydro-1H-benzo[e][1,4]diazepin-5-yl]-benzonitrile]
inhibition at 10 µM: 96%

COc1cc2c(cc1-c1ccc(Cl)cc1)C(c1cccc(C#N)c1)=NCC(=O)N2C [Example 7, 3-[7-(4-Chloro-phenyl)-8-methoxy-1-methyl-2-oxo-2,3-dihydro-1H-benzo[e][1,4]diazepin-5-yl]-benzonitrile]
inhibition at 10 µM: 91%

COc1cc2c(cc1-c1ccco1)C(c1cccc(C#N)c1)=NCC(=O)N2C [Example 8, 3-(7-Furan-2-yl-8-methoxy-1-methyl-2-oxo-2,3-dihydro-1H-benzo[e][1,4]diazepin-5-yl)-benzonitrile]
inhibition at 10 µM (Table 1, 10 μM test compound): 47%

CN1C(=O)CN=C(c2cccc(C=O)c2)c2cc(-c3ccccc3)ccc21 [Example 9, 3-(1-Methyl-2-oxo-7-phenyl-2,3-dihydro-1H-benzo[e][1,4]diazepin-5-yl)-benzaldehyde]
inhibition at 10 µM (Table 1, 10 μM test compound): 84%

COc1ccccc1-c1cc2c(cc1OC)NC(=O)CN=C2c1cccc(C#N)c1 [Example 10, 3-[8-Methoxy-7-(2-methoxy-phenyl)-2-oxo-2,3-dihydro-1H-benzo[e][1,4]diazepin-5-yl]-benzonitrile]
inhibition at 10 µM (Table 1, 10 μM test compound): 94%

CN1C(=O)CN=C(c2cccc(C#N)c2)c2cc(-c3ccccc3)ccc21 [Example 11, 3-(1-Methyl-2-oxo-7-phenyl-2,3-dihydro-1H-benzo[e][1,4]diazepin-5-yl)-benzonitrile]
inhibition at 10 µM: 79%

COc1ccccc1-c1ccc2c(c1)C(c1cccc(C#N)c1)=NCC(=O)N2C [Example 12, 3-[7-(2-Methoxy-phenyl)-1-methyl-2-oxo-2,3-dihydro-1H-benzo[e][1,4]diazepin-5-yl]-benzonitrile]
inhibition at 10 µM (Table 1, 10 μM test compound): 40%

COc1cccc(-c2ccc3c(c2)C(c2cccc(C#N)c2)=NCC(=O)N3C)c1 [Example 13, 3-[7-(3-Methoxy-phenyl)-1-methyl-2-oxo-2,3-dihydro-1H-benzo[e][1,4]diazepin-5-yl]-benzonitrile]
inhibition at 10 µM (Table 1, 10 μM test compound): 91%

COc1ccc(-c2ccc3c(c2)C(c2cccc(C#N)c2)=NCC(=O)N3C)cc1 [Example 14, 3-[7-(4-Methoxy-phenyl)-1-methyl-2-oxo-2,3-dihydro-1H-benzo[e][1,4]diazepin-5-yl]-benzonitrile]
inhibition at 10 µM (Table 1, 10 μM test compound): 92%

COc1ccc(OC)c(-c2ccc3c(c2)C(c2cccc(C#N)c2)=NCC(=O)N3C)c1 [Example 15, 3-[7-(2,5-Dimethoxy-phenyl)-1-methyl-2-oxo-2,3-dihydro-1H-benzo[e][1,4]diazepin-5-yl]-benzonitrile]
inhibition at 10 µM: 98%

COc1cccc(OC)c1-c1ccc2c(c1)C(c1cccc(C#N)c1)=NCC(=O)N2C [Example 16, 3-[7-(2,6-Dimethoxy-phenyl)-1-methyl-2-oxo-2,3-dihydro-1H-benzo[e][1,4]diazepin-5-yl]-benzonitrile]
inhibition at 10 µM (Table 1, 10 μM test compound): 100%

COc1ccc(-c2ccc3c(c2)C(c2cccc(C#N)c2)=NCC(=O)N3C)c(OC)c1 [Example 17, 3-[7-(2,4-Dimethoxy-phenyl)-1-methyl-2-oxo-2,3-dihydro-1H-benzo[e][1,4]diazepin-5-yl]-benzonitrile]
inhibition at 10 µM: 98%

CCOc1cc2c(cc1-c1ccccc1)C(c1ccccc1)=NCC(=O)N2CC [Example 18, 8-Ethoxy-1-ethyl-5,7-diphenyl-1,3-dihydro-benzo[e][1,4]diazepin-2-one]
inhibition at 10 µM (Table 1, 10 μM test compound): 27%

COc1cc2c(cc1-c1ccc(F)cc1)C(c1cccc(C(N)=O)c1)=NCC(=O)N2C [Example 20, 3-[7-(4-Fluoro-phenyl)-8-methoxy-1-methyl-2-oxo-2,3-dihydro-1H-benzo[e][1,4]diazepin-5-yl]-benzamide]
inhibition at 10 µM (Table 1, 10 μM test compound): 99%

COc1cc2c(cc1-c1cccc(Cl)c1)C(c1cccc(C(N)=O)c1)=NCC(=O)N2C [Example 24, 3-[7-(3-Chloro-phenyl)-8-methoxy-1-methyl-2-oxo-2,3-dihydro-1H-benzo[e][1,4]diazepin-5-yl]-benzamide]
inhibition at 10 µM (Table 1, 10 μM test compound): 98%

COc1cc2c(cc1-c1ccc(Cl)cc1)C(c1cccc(C(N)=O)c1)=NCC(=O)N2C [Example 25, 3-[7-(4-Chloro-phenyl)-8-methoxy-1-methyl-2-oxo-2,3-dihydro-1H-benzo[e][1,4]diazepin-5-yl]-benzamide]
inhibition at 10 µM (Table 1, 10 μM test compound): 97%

COc1cc2c(cc1-c1ccco1)C(c1cccc(C(N)=O)c1)=NCC(=O)N2C [Example 26, 3-(7-Furan-2-yl-8-methoxy-1-methyl-2-oxo-2,3-dihydro-1H-benzo[e][1,4]diazepin-5-yl)-benzamide]
inhibition at 10 µM (Table 1, 10 μM test compound): 71%

CN1C(=O)CN=C(c2cccc(C(N)=O)c2)c2cc(-c3ccccc3)ccc21 [Example 27, 3-(1-methyl-2-oxo-7-phenyl-2,3-dihydro-1H-benzo[e][1,4]diazepin-5-yl)-benzamide]
inhibition at 10 µM: 96%

COc1ccccc1-c1ccc2c(c1)C(c1cccc(C(N)=O)c1)=NCC(=O)N2C [Example 28, 3-[7-(2-methoxy-phenyl)-1-methyl-2-oxo-2,3-dihydro-1H-benzo[e][1,4]diazepin-5-yl]-benzamide]
inhibition at 10 µM (Table 1, 10 μM test compound): 97%

COc1cccc(-c2ccc3c(c2)C(c2cccc(C(N)=O)c2)=NCC(=O)N3C)c1 [Example 29, 3-[7-(3-methoxy-phenyl)-1-methyl-2-oxo-2,3-dihydro-1H-benzo[e][1,4]diazepin-5-yl]-benzamide]
inhibition at 10 µM (Table 1, 10 μM test compound): 95%

COc1ccc(-c2ccc3c(c2)C(c2cccc(C(N)=O)c2)=NCC(=O)N3C)cc1 [Example 30, 3-[7-(4-methoxy-phenyl)-1-methyl-2-oxo-2,3-dihydro-1H-benzo[e][1,4]diazepin-5-yl]-benzamide]
inhibition at 10 µM (Table 1, 10 μM test compound): 95%

COc1ccc(-c2ccc3c(c2)C(c2cccc(C(N)=O)c2)=NCC(=O)N3C)c(OC)c1 [Example 33, 3-[7-(2,4-Dimethoxy-phenyl)-1-methyl-2-oxo-2,3-dihydro-1H-benzo[e][1.4]diazepin-5-yl]-benzamide]
PDE2 percentage of inhibition at 10 μM (Table 1, 10 μM test compound): 99%

COc1cc2c(cc1-c1ccc(C(N)=O)cc1)C(c1cccc(C(N)=O)c1)=NCC(=O)N2 [Example 34, 3-[8-Methoxy-7-(4-benzamide)-2-oxo-2,3-dihydro-1H-benzo[e][1,4]diazepin-5-yl]-benzamide]
PDE2 percentage of inhibition at 10 μM (Table 1, 10 μM test compound): 98%

CCCCCCN1C(=O)CN=C(c2cccc(C#N)c2)c2cc(-c3ccccc3OC)c(OC)cc21 [Example 35, 3-[1-Hexyl-8-methoxy-7-(2-methoxy-phenyl)-2-oxo-2,3-dihydro-1H-benzo[e][1,4]diazepin-5-yl]-benzonitrile]
inhibition at 10 µM: 39%

COc1ccccc1-c1cc2c(cc1OC)NC(=O)CN=C2c1cccc(C(N)=O)c1 [Example 36, 3-[8-Methoxy-7-(2-methoxy-phenyl)-2-oxo-2,3-dihydro-1H-benzo[e][1,4]diazepin-5-yl]-benzamide]
inhibition at 10 µM (Table 1, 10 μM test compound): 94%

CCCN1C(=O)CN=C(c2cccc(C#N)c2)c2cc(-c3ccccc3OC)c(OC)cc21 [Example 37, 3-[8-Methoxy-7-(2-methoxy-phenyl)-2-oxo-1-propyl-2,3-dihydro-1H-benzo[e][1,4]diazepin-5-yl]-benzonitrile]
inhibition at 10 µM: 45%

Source: patent US7410963B2, “Benzo-1,4-diazepin-2-one derivatives as phosphodiesterase PDE2 inhibitors, preparation and therapeutic use thereof” (VIA Pharmaceuticals, Inc., priority 2003, dated 2008)
